Experimental data taken from patent US20220064291A1, “METHODS OF USING BUTYROPHILIN ANTIBODIES FOR TREATING HIV INFECTION” (Merck Sharp & Dohme Corp., priority 2018, published 2022).

How the values were obtained:
human CD4+ T cells = experiment: Inhibition of anti-CD3 (TCR)-mediated T cell activation by recombinant butyrophilin-Fc proteins, bead- and plate-based assays; details: anti-CD3 stimulation, FIG. 3
Experimental: To characterize the role of butyrophilins in regulating T cell responses, T cell assays were performed using recombinant human butyrophilin-Fc proteins. Specifically, we assessed the role of butyrophilins in inhibiting T cell receptor (TCR)-mediated T cell activation by anti-CD3 antibody (clone OKT3). Experiments were performed in bead- and plate-based formats.
Briefly, PBMCs were isolated from healthy human donors (Biological Specialty Corporation, Colmar, Pa.). To generate T cell blasts, PBMCs were treated with IL-2 (4u/ml) and PHA (1 μg/ml) in RPMI media containing 10% Fetal bovine serum (Gibco, Gaithersburg, Md.), penicillin (100U/ml)/streptomycin (0.1 mg/ml) (Gibco, Gaithersburg, Md.), and L-Glutamine (2 mM) (Gibco, Gaithersburg, Md.) at 37° C. in a CO2 incubator for 7 days. Fresh media was added once every 3 days. […]
4. […] T cell activation was measured based on IFNγ expression using a V-PLEX proinflammatory panel 1 human assay (Meso Scale Discovery, Rockville, Md.) (FIG. 3A-C).
Sterile 96-well flat bottom tissue culture plates (Corning) were coated with 1 μg/ml of anti-CD3 antibody (Clone OKT3, BD Pharmingen) in PBS+/− the following Fc-fusion proteins: BTN2A2-Fc, BTN3A1-Fc, or human IgG Fc. […] T cell activation was measured based on IFNγ expression using a V-PLEX proinflammatory panel 1 human assay (Meso Scale Discovery, Rockville, Md.) (FIG. 3D).

[1] = test system: HIV latent primary CD4+ T cells; experiment: Competition with recombinant BTN-Fc proteins against anti-BTN3A 20.1-mediated virus reactivation; type: cell-based, human; details: recombinant Fc proteins 0.03-10 μg/ml; 24 h; FIG. 6
Experimental: To confirm the specificity of anti-BTN3A antibody-mediated activity on latent virus activity and T cell activation, we performed competition experiments using recombinant BTN proteins. Briefly, 96-well flat bottom tissue culture plates (Corning) were coated with anti-CD3 (1 μg/ml) and anti-BTN3A 20.1 antibody (5 μg/ml) in PBS for 16 h in a 4° C. refrigerator. The next day, antibodies were aspirated using a multichannel pipette and various concentrations of recombinant BTN-Fc proteins BTN3A1-Fc and BTN3A2-Fc (10 μg/ml, 3 μg/ml, 1 μg/ml, 0.3 μg/ml, 0.1 μg/ml, and 0.03 μg/ml) were added to antibody coated plates in 2% FBS (in PBS). BTN2A2-Fc and human IgG Fc were used as controls. After 30 min incubation at RT recombinant Fc proteins were aspirated using a multichannel pipette. Next, HIV latent primary CD4+ T cells from two donors were added to the antibody coated plates in duplicates at 125,000 cells/well in 200 ul of primary cell media (RPMI with 10% FBS, 50 μg/ml Primocin™). At 24h post treatment virus reactivation was measured using a Nano-Glo® Luciferase Assay (Promega) (FIG. 6).

“BTN3A1-Fc: recombinant human butyrophilin-Fc fusion protein, R&D systems” was tested, and the “activation of human CD4+ T cells (IFNγ production, T cell proliferation, IL-2 production)” value (human CD4+ T cells) was “block activation” and the “inhibition of anti-BTN3 20.1 Ab-mediated latent HIV activation and T cell activation” value [1] was “dose-dependent inhibition”.
